Experimental findings from US8119681B2, “2-[1-phenyl-5-hydroxy or methoxy-4alpha-methyl-hexahydrocyclopenta [ƒ]indazole-5-YL]ethyl phenyl derivatives as glucocorticoid receptor ligands” (Merck Sharp & Dohme Corp., priority 2006, dated 2012) are described below.

The target of test [1] is T1, human GR (Homo sapiens, UniProt P04150).
T1 sequence (P04150 1-777): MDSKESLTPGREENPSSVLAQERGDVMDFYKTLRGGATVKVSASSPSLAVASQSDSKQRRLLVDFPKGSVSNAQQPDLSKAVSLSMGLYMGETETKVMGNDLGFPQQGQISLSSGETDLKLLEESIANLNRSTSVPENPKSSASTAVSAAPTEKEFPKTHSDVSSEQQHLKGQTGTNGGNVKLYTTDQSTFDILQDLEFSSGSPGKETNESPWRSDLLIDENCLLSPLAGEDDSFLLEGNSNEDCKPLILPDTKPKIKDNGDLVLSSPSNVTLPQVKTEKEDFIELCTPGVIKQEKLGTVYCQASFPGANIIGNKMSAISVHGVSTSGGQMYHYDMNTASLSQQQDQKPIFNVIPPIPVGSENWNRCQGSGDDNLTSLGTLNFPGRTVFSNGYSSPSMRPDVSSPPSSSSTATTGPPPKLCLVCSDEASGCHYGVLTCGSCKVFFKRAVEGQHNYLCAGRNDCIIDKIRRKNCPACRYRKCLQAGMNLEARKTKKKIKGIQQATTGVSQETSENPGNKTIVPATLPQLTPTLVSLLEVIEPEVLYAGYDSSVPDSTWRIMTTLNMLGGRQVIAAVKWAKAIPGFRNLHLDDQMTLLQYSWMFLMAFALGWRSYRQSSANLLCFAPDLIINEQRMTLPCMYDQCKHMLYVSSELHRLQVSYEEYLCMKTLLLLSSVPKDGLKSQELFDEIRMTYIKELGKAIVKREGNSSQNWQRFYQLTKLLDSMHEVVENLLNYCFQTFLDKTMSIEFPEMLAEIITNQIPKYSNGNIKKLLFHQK
Briefly: Transrepression Assay (GITAR), TNFα-β-lactamase reporter gene in U937 cells. Also noted: U937 cells contain an endogenous glucocorticoid receptor (GR); endogenous in cells; host or cells: U937 cells stably transfected with the TNF-α promoter/β-lactamase reporter only. The settings on record: for EC50: IP = inflection point; for GITAR > GRAMM % SEP: separation of GITAR Emax over GRAMMER Emax; for Emax: U-937. Format: cell-based. Summed up:
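Reporter readout used CCF2-AM loading for 70–90 min at room temperature after overnight (~18 h, 37 °C) PMA (5 ng/ml final) and LPS (100 ng/ml final) stimulation of compound-treated (30–45 min) TNFα-β-lactamase U937 cells expressing native GR. Activity was normalised to 100 nM dexamethasone repression.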

Test [2] deals with T1, human GR. Briefly: Trans-Activation Modulation of Glucocorticoid Receptor (GRAMMER), MMTV-LUC reporter gene. Format: cell-based. Also noted: endogenous in cells. The settings on record: for Emax: A549; for EC50: A549 cells, IP = inflection point. The source says:
Trans-Activation Modulation of Glucocorticoid Receptor (GRAMMER)
This assay assesses the ability of test compounds to control transcription from the MMTV-LUC reporter gene in lung adenocarcinoma A549 cells or HeLa cells, a human […] cell line that naturally expresses the human GR. The assay measures induction of a modified MMTV LTR/promoter linked to the LUC reporter gene.
The routine transient assay consists of plating 7,000-25,000 cells/well of a white, clear-bottom 96-well plate. Alternatively, 384-well plates can be used at a cell concentration of 10,000/well. The media that the cells are plated in is “exponential growth medium” which consists of phenol red-free RPMI1640 containing 10% FBS, 4 mM L-glutamine, 20 mM HEPES, 10 ug/mL human insulin, and 20 ug/mL gentamicin. Incubator conditions are 37° C. and 5% CO2. The transfection is done in batch mode. The cells are trypsinized and counted to the right cell number in the proper amount of fresh media. It is then gently mixed with the FuGene6/DNA mix and plated onto the 96 or 384-well plate, all the wells receive 100 uL or 40 uL, respectively, of medium+lipid/DNA complex then incubated 37° C. overnight. The transfection cocktail consists of serum-free OptiMEM, FuGene6 reagent and DNA. The manufacturer's (Roche Biochemical) protocol for cocktail setup is as follows: The lipid to DNA ratio is approximately 2.5:1 and the incubation time is 20 min at room temperature. Sixteen to 24 hours after transfection, the cells are treated with dexamethasone to a final concentration of 10 nM as well as the compound of interest, such that final DMSO (vehicle) concentration is equal to or less than 1%. Each plate also contains samples that are treated with 10 nM dexamethasone alone, which is used as the 100% activity control. The cells are exposed to the compounds for 24 hours. After 24 hours, the cells are lysed by a Promega cell culture lysis buffer for approximately 30 min and then the luciferase activity in the extracts is assayed in the 96-well format luminometer. In 384-well format, Steady-Glo (Promega) or Steady-Lite (PerkinElmer) can be used by adding an equal volume of reagent to the media present in each well. Activity induced by 10 nM dexamethasone alone is set at 100% activity. Antagonist activity is calculated by determining the decrease in dexamethasone-induced activity in response to compound treatment relative to samples that were treated with dexamethasone alone. […] This transactivation assay can be performed in an agonist and antagonist mode to identify these different activities. […]
A general note: In a reporter assay the amount or activity of a reporter protein is the signal.

Where [3] appears, read: Table 2, U937 cells, read-out: Transactiviation U937 Cells GITAR IP.
The mark [4] stands for this setting: Table 2, U937 cells, activity repressed by 100 nM dexamethasone = 100%, read-out: Transactiviation U937 Cells GITAR Emax (%).
Where [5] appears, read: read-out: Transactiviation A549 Cells GRAMMER Emax (%).
Setting [6] is: Table 2, read-out: Transactiviation A549 Cells GRAMMER IP.
The mark [7] stands for this setting: Table 1, U937 cells, read-out: Transrepression U937 Cells GITAR IP.
Where [8] appears, read: 100 nM dexamethasone = 100% activity, read-out: maximal activity in the transrepression assay.
Where [9] appears, read: Table 1, U937 cells, activity repressed by 100 nM dexamethasone = 100%, read-out: Transrepression U937 Cells GITAR Emax (%).
The mark [10] stands for this setting: read-out: Transactivation A549 Cells GRAMMER Emax (%).
[11] abbreviates: Table 1, read-out: Transactivation A549 Cells GRAMMER IP.

In the case of `C[C@]12Cc3cnn(-c4ccc(F)cc4)c3C=C1CC[C@@]2(O)CCc1ccccc1Cl` [Example 40 WO 2004/075840 A2, reference compound], the EC50 on human GR [1] (setting [3]) stood at 212 nM; at human GR [2] (setting [6]), 162 nM. For the same molecule, on human GR [1] (Table 2), the “GITAR > GRAMM % SEP” value is −7%. Besides, the Emax was found to be 91% at human GR [1] (setting [4]) and 98% on human GR [2] (setting [5]).

For `C[C@]12Cc3cnn(-c4ccc(F)cc4)c3C=C1CC[C@@]2(O)CCc1ccccc1C(=O)N1CCC1` [Example 40, (4αS,5R)-5-{2-[2-(azetidin-1-ylcarbonyl)phenyl]ethyl}-1-(4-fluorophenyl)-4α-methyl-1,4,4α,5,6,7-hexahydrocyclopenta[f]indazol-5-ol], the EC50 worked out at 246 nM at human GR [1] (setting [7]) and 231 nM at human GR [2] (setting [11]). The “GITAR > GRAMM % SEP” value at human GR [1] (Table 1) was 17%. The Emax on human GR [1] (setting [8]) was 5 to 100%; on human GR [1] (setting [9]) it was 64%; at human GR [2] (setting [10]) it was 46%.

Regarding `C[C@]12Cc3cnn(-c4ccc(F)cc4)c3C=C1CCC[C@@]2(O)CCc1ccccc1Cl` [Example 41 WO 2004/075840 A2, reference compound], the EC50 at human GR [1] (setting [3]) is 270 nM; on human GR [2] (setting [6]), 123 nM. For the same molecule, at human GR [1] (Table 2), the “GITAR > GRAMM % SEP” value was −3%. Besides, the Emax at human GR [1] (setting [4]) worked out at 88%; on human GR [2] (setting [5]) it was 92%.

For `COC(=O)C(C)(C)NC(=O)c1c(F)cccc1CC[C@]1(O)CCC2=Cc3c(cnn3-c3ccc(F)cc3)C[C@@]21C` [Example 41, methyl N-(2-fluoro-6-{2-[(4αS,5R)-1-(4-fluorophenyl)-5-hydroxy-4α-methyl-1,4,4α,5,6,7-hexahydrocyclopenta[f]indazol-5-yl]ethyl}benzoyl)-2-methylalaninate], the results for the EC50 at human GR [1] (setting [7]) and at human GR [2] (setting [11]) were 115 nM and 46 nM, respectively. Besides, the “GITAR > GRAMM % SEP” value at human GR [1] (Table 1) was 44%. The Emax on human GR [1] (setting [8]) is 5 to 100%; on human GR [1] (setting [9]) it was 62%; at human GR [2] (setting [10]), 18%.

Consider `C[C@]12Cc3cnn(-c4ccccc4)c3C=C1CC[C@@]2(O)CCc1ccccc1C(=O)NC1CC1` [Example 42, N-cyclopropyl-2-{2-[(4αS,5R)-5-hydroxy-4α-methyl-1-phenyl-1,4,4α,5,6,7-hexahydrocyclopenta[f]indazol-5-yl]ethyl}benzamide], for which the EC50 at human GR [1] (setting [7]) is 122 nM; on human GR [2] (setting [11]), 74 nM. Moreover, at human GR [1] (Table 1), the “GITAR > GRAMM % SEP” value is 13%. Further, the results for the Emax at human GR [1] (setting [8]), at human GR [1] (setting [9]) and at human GR [2] (setting [10]) were 5 to 100%, 64% and 51%, respectively.

As to `C[C@]12Cc3cnn(-c4ccccc4)c3C=C1CC[C@@]2(O)CCc1ccccc1C(N)=O` [Example 43, 2-{2-[(4αS,5R)-5-hydroxy-4α-methyl-1-phenyl-1,4,4α,5,6,7-hexahydrocyclopenta[f]indazol-5-yl]ethyl}benzamide], the EC50 at human GR [1] (setting [7]) amounted to 98 nM; on human GR [2] (setting [11]) it was 111 nM. The “GITAR > GRAMM % SEP” value at human GR [1] (Table 1) stood at 9%. Also, the Emax on human GR [1] (setting [8]) was 5 to 100%; on human GR [1] (setting [9]) it was 68%; at human GR [2] (setting [10]), 59%.

With `C=C(C)CNC(=O)c1c(F)cccc1CC[C@]1(O)CCC2=Cc3c(cnn3-c3ccc(F)cc3)C[C@@]21C` [Example 44, 2-fluoro-6-{2-[(4αS,5R)-1-(4-fluorophenyl)-5-hydroxy-4α-methyl-1,4,4α,5,6,7-hexahydrocyclopenta[f]indazol-5-yl]ethyl}-N-(2-methylprop-2-en-1-yl)benzamide], the values for the EC50 on human GR [1] (setting [7]) and at human GR [2] (setting [11]) were 119 nM and 95 nM, respectively. Further, the “GITAR > GRAMM % SEP” value on human GR [1] (Table 1) stood at 43%. For the same molecule, the Emax on human GR [1] (setting [8]) is 5 to 100%; on human GR [1] (setting [9]), 67%; on human GR [2] (setting [10]), 24%.

Turning to `C[C@H](CNC(=O)c1ccccc1CC[C@]1(O)CCC2=Cc3c(cnn3-c3ccc(F)cc3)C[C@@]21C)C(F)(F)F` [Example 45, 2-{2-[(4αS,5R)-1-(4-fluorophenyl)-5-hydroxy-4α-methyl-1,4,4α,5,6,7-hexahydrocyclopenta[f]indazol-5-yl]ethyl}-N-[(2R)-3,3,3-trifluoro-2-methylpropyl]benzamide], the EC50 was 220 nM at human GR [1] (setting [7]) and 183 nM at human GR [2] (setting [11]). Also, the “GITAR > GRAMM % SEP” value on human GR [1] (Table 1) is on record as 52%. Further, the Emax at human GR [1] (setting [8]) was 5 to 100%; at human GR [1] (setting [9]), 70%; on human GR [2] (setting [10]) it was 18%.

Consider `C[C@]12Cc3cnn(-c4ccc(F)cc4)c3C=C1CC[C@@]2(O)CCc1ccc(F)cc1` [Example 46 WO 2004/075840 A2, reference compound], for which the EC50 on human GR [1] (setting [3]) stood at 596 nM; on human GR [2] (setting [6]), 571 nM. Besides, the “GITAR > GRAMM % SEP” value on human GR [1] (Table 2) came out at 44%. Besides, the Emax at human GR [1] (setting [4]) came out at 71%; on human GR [2] (setting [5]) it was 26%.

With `C[C@]12Cc3cnn(-c4ccc(F)cc4)c3C=C1CC[C@@]2(O)CCc1ccccc1C(=O)N1CCCCC1` [Example 46, (4αS,5R)-1-(4-fluorophenyl)-4α-methyl-5-{2-[2-(piperidin-1-ylcarbonyl)phenyl]ethyl}-1,4,4α,5,6,7-hexahydrocyclopenta[f]indazol-5-ol], the EC50 was 248 nM on human GR [1] (setting [7]) and 176 nM on human GR [2] (setting [11]). For the same molecule, on human GR [1] (Table 1), the “GITAR > GRAMM % SEP” value was found to be 17%. Moreover, the Emax at human GR [1] (setting [8]) was 5 to 100%; at human GR [1] (setting [9]), 70%; on human GR [2] (setting [10]), 54%.

For `C[C@]12Cc3cnn(-c4ccc(F)cc4)c3C=C1CC[C@@]2(O)CCc1ccccc1C(=O)N1CCCC1` [Example 47, (4αS,5R)-1-(4-fluorophenyl)-4α-methyl-5-{2-[2-(pyrrolidin-1-ylcarbonyl)phenyl]ethyl}-1,4,4α,5,6,7-hexahydrocyclopenta[f]indazol-5-ol], the EC50 at human GR [1] (setting [7]) came out at 205 nM; at human GR [2] (setting [11]), 196 nM. The “GITAR > GRAMM % SEP” value at human GR [1] (Table 1) is 12%. Also, the Emax on human GR [1] (setting [8]) was 5 to 100%; at human GR [1] (setting [9]) it was 71%; at human GR [2] (setting [10]), 59%.
